In paper PMC11861906, “Structural basis for lipid-mediated activation of G protein-coupled receptor GPR55” (Nature Communications, 2025):

Key:
[1] = target: wt GPR55 (Gα13 mutant H368Q) (Homo sapiens, UniProt Q9Y2T6); test: BRET² G protein dissociation assay, wt GPR55 with Gα13-H368Q; type: cell-based; conditions: for BRET2 response, Mean (plotted, Fig. S4): GPR55-wt-G13-H368Q
Method: (§1) Next, we used a mutagenesis approach to further explore the Gα13 selectivity of GPR55. The striking difference in the sequence between the two G protein subtypes guided the design of four Gα13 mutants that are in close contact with GPR55 by replacing the residues with the respective Gα12 amino acid (L374^-4I, Q373^-5D, H368^-10Q, R331D). The mutants were tested individually for their ability to be activated by GPR55 using the same G protein dissociation assay. […] The single Gα13-mutants affected the potency of LPI and ML184 only to a minor extend compared to wt Gα13 (Supplementary Table S3).
(§2) G protein dissociation assays were performed according to the original protocols of the TRUPATH BRET² assay[47],[87] but with subtle modifications as previously described[61],[88],[89]. All reagents and cells were obtained from Thermo Fisher Scientific unless indicated otherwise. The coding sequences for the G protein biosensors[47] (Gα12-Rluc8, Gα13-Rluc8, wt Gβ3, and Gγ9-GFP), the wt GPR55, the construct used for cryo-EM (with GFP bearing a G67A mutation to disrupt fluorescence properties[48] for BRET² assays), GPR55 binding pocket mutants (G152^4.56F, G152^4.56W, N171^ECL2Q, N171^ECL2A, T176^5.33A, R253^6.62A), and the wt TBXA2R were codon-optimized for Homo sapiens, gene-synthesized, and sub-cloned into pcDNA^TM3.1(+) between NheI and HindIII restriction sites by GeneArt (Thermo Fisher Scientific). […] Freshly grown cells were washed with Dulbecco’s Balanced Salt Solution (DPBS, cat. #14200075) and detached using trypsin-ethylenediaminetetraacetic acid (trypsin-EDTA) (cat. #25300-062). Then, the cells were reconstituted to 500,000 cells per mL with fresh medium, and 1,000,000 cells were seeded into each well of a 6-well plate. After 3 h incubation at 37 °C and 5% CO2, adherent cells were transfected with 600 ng DNA (1:1:1:1 ratio of plasmid DNA for GPR55, wt Gβ3, Gγ9-GFP, and Gα12-Rluc8 or Gα13-Rluc8). Plasmid DNA was mixed with 1.5 µL Lipofectamine^TM 2000 (cat. #11668027) in Opti-MEM^TM medium (cat. #31985062) and incubated for 20 min. Then, the mixture was added to each well of the 6-well plate following 24 h incubation at 37 °C and 5% CO2. Transfected cells were washed with DPBS, detached using EDTA (Versene, cat. #15040066), and reconstituted into fresh medium at 500,000 cells mL^−1. From this suspension, 50,000 cells were seeded into each well of a white-bottom 96-well plate (Nunc^TM MicroWell^TM 96 wells, cat. #136101) following overnight incubation at 37 °C and 5% CO2. Then, the adherent cells were washed with assay medium [Hank’s balanced salt solution (HBSS, cat. #14065056) plus 20 mM HEPES pH 7.4 (cat. #15630056)] and finally reconstituted into 50 µL of the same medium. […] Methoxy e-Coelenterazine was used as luciferase substrate (Prolume Purple, NanoLight Technology, cat. #369), reconstituted at 1 mM in methanol and diluted to 37.5 µM with assay buffer (7.5 µM final assay concentration). The assay was started by the addition of 20 µL luciferase substrate to each well of the assay plate using a Multidrop^TM Combi reagent dispenser (Thermo Fisher Scientific), followed by 5 min incubation at room temperature. Then, 30 µL of agonist dilutions or DMSO control was added (final DMSO concentration 1.5%), followed by an additional 5 min incubation at room temperature. BRET² measurements were performed with a PHERAstar® FSX microplate reader (BMG LABTECH) using a BRET² filter (donor emission 370–450 nm, acceptor emission 500–530 nm) at the maximum fluorescence gain of 3600. BRET² ratios were calculated by dividing GFP emission signals from Rluc8 emission counts.

[2] = target: wt GPR55 (Gα13 mutant L374I) (Homo sapiens, UniProt Q9Y2T6); test: BRET² G protein dissociation assay, wt GPR55 with Gα13-L374I; type: cell-based; conditions: for BRET2 response, Mean (plotted, Fig. S4): GPR55-wt-G13-L374I
Method: as §1, §2

[3] = target: wt GPR55 (Gα13 mutant R331D) (Homo sapiens, UniProt Q9Y2T6); test: BRET² G protein dissociation assay, wt GPR55 with Gα13-R331D; type: cell-based; conditions: for BRET2 response, Mean (plotted, Fig. S4): GPR55-wt-G13-R331D
Method: as §1, §2

[4] = target: wt GPR55 (Gα13 mutant Q373D) (Homo sapiens, UniProt Q9Y2T6); test: BRET² G protein dissociation assay, wt GPR55 with Gα13-Q373D; type: cell-based; conditions: for BRET2 response, Mean (plotted, Fig. S4): GPR55-wt-G13-Q373D
Method: as §1, §2

[5] = tested on: GPR55; design: method as in PMID 21534610; conditions: β-arrestin recruitment assays; read-out: reported potency; cited from earlier work

wt GPR55 (Gα13 mutant L374I), sequence (Q9Y2T6 whole entry, stated change not applied): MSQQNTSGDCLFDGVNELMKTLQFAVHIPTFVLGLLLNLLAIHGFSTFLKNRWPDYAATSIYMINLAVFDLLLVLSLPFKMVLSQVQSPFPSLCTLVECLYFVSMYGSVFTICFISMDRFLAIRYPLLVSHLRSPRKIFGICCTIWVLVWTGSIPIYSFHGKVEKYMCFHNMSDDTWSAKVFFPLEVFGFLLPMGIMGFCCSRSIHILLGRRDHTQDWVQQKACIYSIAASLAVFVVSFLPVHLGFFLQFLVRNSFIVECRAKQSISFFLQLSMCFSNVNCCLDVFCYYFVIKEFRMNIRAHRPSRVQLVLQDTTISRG
wt GPR55 (Gα13 mutant L374I), sequence (Q14344 with tags, fused parts or gaps L374I partner): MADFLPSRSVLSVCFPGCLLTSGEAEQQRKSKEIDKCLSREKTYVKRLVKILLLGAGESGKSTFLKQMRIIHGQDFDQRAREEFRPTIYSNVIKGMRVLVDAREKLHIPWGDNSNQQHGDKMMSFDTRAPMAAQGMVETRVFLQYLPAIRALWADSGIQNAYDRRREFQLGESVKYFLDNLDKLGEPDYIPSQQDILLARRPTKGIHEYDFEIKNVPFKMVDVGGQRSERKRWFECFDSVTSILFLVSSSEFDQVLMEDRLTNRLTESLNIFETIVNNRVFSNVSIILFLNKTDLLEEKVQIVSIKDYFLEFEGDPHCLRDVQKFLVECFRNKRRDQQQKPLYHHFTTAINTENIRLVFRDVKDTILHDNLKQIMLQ
wt GPR55 (Gα13 mutant L374I), sequence (P16520 whole entry partner): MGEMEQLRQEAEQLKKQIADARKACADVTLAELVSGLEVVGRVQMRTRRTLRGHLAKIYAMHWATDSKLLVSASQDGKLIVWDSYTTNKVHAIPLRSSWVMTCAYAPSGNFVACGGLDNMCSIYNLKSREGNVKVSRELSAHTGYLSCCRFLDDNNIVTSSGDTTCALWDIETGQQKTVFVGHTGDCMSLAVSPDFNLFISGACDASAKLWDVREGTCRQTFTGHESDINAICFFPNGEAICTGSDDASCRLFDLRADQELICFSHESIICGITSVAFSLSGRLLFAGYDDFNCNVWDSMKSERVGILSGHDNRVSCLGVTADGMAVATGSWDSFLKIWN
wt GPR55 (Gα13 mutant L374I), sequence (O14610 1-66 partner limits assumed): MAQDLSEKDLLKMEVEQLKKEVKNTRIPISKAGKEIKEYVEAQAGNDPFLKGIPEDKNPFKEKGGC
wt GPR55 (Gα13 mutant H368Q), sequence (Q9Y2T6 whole entry, stated change not applied): as the sequence (Q9Y2T6 whole entry, stated change not applied) above
wt GPR55 (Gα13 mutant H368Q), sequence (Q14344 with tags, fused parts or gaps H368Q partner): as the sequence (Q14344 with tags, fused parts or gaps L374I partner) above, with H368Q, I374L counted along it
wt GPR55 (Gα13 mutant H368Q), sequence (P16520 whole entry partner): as the sequence (P16520 whole entry partner) above
wt GPR55 (Gα13 mutant H368Q), sequence (O14610 1-66 partner limits assumed): as the sequence (O14610 1-66 partner limits assumed) above
wt GPR55 (Gα13 mutant R331D), sequence (Q9Y2T6 whole entry, stated change not applied): as the sequence (Q9Y2T6 whole entry, stated change not applied) above
wt GPR55 (Gα13 mutant R331D), sequence (Q14344 whole entry R331D partner): as the sequence (Q14344 with tags, fused parts or gaps L374I partner) above, with R331D, I374L counted along it
wt GPR55 (Gα13 mutant R331D), sequence (P16520 whole entry partner): as the sequence (P16520 whole entry partner) above
wt GPR55 (Gα13 mutant R331D), sequence (O14610 1-66 partner limits assumed): as the sequence (O14610 1-66 partner limits assumed) above
wt GPR55 (Gα13 mutant Q373D), sequence (Q9Y2T6 whole entry, stated change not applied): as the sequence (Q9Y2T6 whole entry, stated change not applied) above
wt GPR55 (Gα13 mutant Q373D), sequence (Q14344 with tags, fused parts or gaps Q373D partner): as the sequence (Q14344 with tags, fused parts or gaps L374I partner) above, with Q373D, I374L counted along it
wt GPR55 (Gα13 mutant Q373D), sequence (P16520 whole entry partner): as the sequence (P16520 whole entry partner) above
wt GPR55 (Gα13 mutant Q373D), sequence (O14610 1-66 partner limits assumed): as the sequence (O14610 1-66 partner limits assumed) above

With `Cc1cccc(N2CCN(C(=O)c3cc(S(=O)(=O)N(C)C)ccc3N3CCCC3)CC2)c1C` [ML184, 3-[[4-(2,3-dimethylphenyl)-1-piperazinyl]carbonyl]-N,N-dimethyl-4-(1-pyrrolidinyl)benzenesulfonamide] the “BRET2 response, Mean (plotted, Fig. S4)” value ([1]; concentration 300 pM) was -0.005683, the “BRET2 response, Mean (plotted, Fig. S4)” value ([1]; concentration 1e-9 M) was -0.005417 and the “BRET2 response, Mean (plotted, Fig. S4)” value ([1]; concentration 3e-9 M) was -0.01235. The “BRET2 response, Mean (plotted, Fig. S4)” value ([1]; concentration 1e-8 M) was -0.02205, the “BRET2 response, Mean (plotted, Fig. S4)” value ([1]; concentration 3e-8 M) was -0.02877 and the “BRET2 response, Mean (plotted, Fig. S4)” value ([1]; concentration 1e-7 M) was -0.03593. For the same molecule, the “BRET2 response, Mean (plotted, Fig. S4)” value ([1]; concentration 3e-7 M) was -0.04192, the “BRET2 response, Mean (plotted, Fig. S4)” value ([1]; concentration 1e-6 M) was -0.04487 and the “BRET2 response, Mean (plotted, Fig. S4)” value ([1]; concentration 3e-6 M) was -0.0483. The “BRET2 response, Mean (plotted, Fig. S4)” value ([1]; concentration 1e-5 M) was -0.05252, the “BRET2 response, Mean (plotted, Fig. S4)” value ([1]; concentration 3e-5 M) was -0.05477 and the EC50 ([1]; wt GPR55, Gα13-H368Q) was 0.0295 µM. The Emax at 30 µM ([1]; wt GPR55, Gα13-H368Q, 30 µM ligand, same normalization, read-out: Efficacy ± SEM (%)) was 101 ± 4%, the “BRET2 response, Mean (plotted, Fig. S4)” value ([2]; concentration 300 pM) was -0.00585 and the “BRET2 response, Mean (plotted, Fig. S4)” value ([2]; concentration 1e-9 M) was -0.001933. For the same molecule, the “BRET2 response, Mean (plotted, Fig. S4)” value ([2]; concentration 3e-9 M) was -0.00955, the “BRET2 response, Mean (plotted, Fig. S4)” value ([2]; concentration 1e-8 M) was -0.02387 and the “BRET2 response, Mean (plotted, Fig. S4)” value ([2]; concentration 3e-8 M) was -0.04258. For the same molecule, the “BRET2 response, Mean (plotted, Fig. S4)” value ([2]; concentration 1e-7 M) was -0.06613, the “BRET2 response, Mean (plotted, Fig. S4)” value ([2]; concentration 3e-7 M) was -0.07745 and the “BRET2 response, Mean (plotted, Fig. S4)” value ([2]; concentration 1e-6 M) was -0.0833. For the same molecule, the “BRET2 response, Mean (plotted, Fig. S4)” value ([2]; concentration 3e-6 M) was -0.08843, the “BRET2 response, Mean (plotted, Fig. S4)” value ([2]; concentration 1e-5 M) was -0.09448 and the “BRET2 response, Mean (plotted, Fig. S4)” value ([2]; concentration 3e-5 M) was -0.09637. For the same molecule, the EC50 ([2]; wt GPR55, Gα13-L374I) was 0.0363 µM, the Emax at 30 µM ([2]; wt GPR55, Gα13-L374I, 30 µM ligand, same normalization, read-out: Efficacy ± SEM (%)) was 84 ± 1% and the “BRET2 response, Mean (plotted, Fig. S4)” value ([3]; concentration 300 pM) was -0.00035. For the same molecule, the “BRET2 response, Mean (plotted, Fig. S4)” value ([3]; concentration 1e-9 M) was -0.0002667, the “BRET2 response, Mean (plotted, Fig. S4)” value ([3]; concentration 3e-9 M) was -0.009133 and the “BRET2 response, Mean (plotted, Fig. S4)” value ([3]; concentration 1e-8 M) was -0.02147. The “BRET2 response, Mean (plotted, Fig. S4)” value ([3]; concentration 3e-8 M) was -0.04232, the “BRET2 response, Mean (plotted, Fig. S4)” value ([3]; concentration 1e-7 M) was -0.06272 and the “BRET2 response, Mean (plotted, Fig. S4)” value ([3]; concentration 3e-7 M) was -0.07305. For the same molecule, the “BRET2 response, Mean (plotted, Fig. S4)” value ([3]; concentration 1e-6 M) was -0.07957, the “BRET2 response, Mean (plotted, Fig. S4)” value ([3]; concentration 3e-6 M) was -0.0831 and the “BRET2 response, Mean (plotted, Fig. S4)” value ([3]; concentration 1e-5 M) was -0.08698. The “BRET2 response, Mean (plotted, Fig. S4)” value ([3]; concentration 3e-5 M) was -0.08977, the EC50 ([3]; wt GPR55, Gα13-R331D) was 0.0339 µM and the Emax at 30 µM ([3]; wt GPR55, Gα13-R331D, 30 µM ligand, same normalization, read-out: Efficacy ± SEM (%)) was 89 ± 3%. The “BRET2 response, Mean (plotted, Fig. S4)” value ([4]; concentration 300 pM) was -0.0016, the “BRET2 response, Mean (plotted, Fig. S4)” value ([4]; concentration 1e-9 M) was -0.008467 and the “BRET2 response, Mean (plotted, Fig. S4)” value ([4]; concentration 3e-9 M) was -0.01797. For the same molecule, the “BRET2 response, Mean (plotted, Fig. S4)” value ([4]; concentration 1e-8 M) was -0.03595, the “BRET2 response, Mean (plotted, Fig. S4)” value ([4]; concentration 3e-8 M) was -0.05377 and the “BRET2 response, Mean (plotted, Fig. S4)” value ([4]; concentration 1e-7 M) was -0.06678. For the same molecule, the “BRET2 response, Mean (plotted, Fig. S4)” value ([4]; concentration 3e-7 M) was -0.07328, the “BRET2 response, Mean (plotted, Fig. S4)” value ([4]; concentration 1e-6 M) was -0.07808 and the “BRET2 response, Mean (plotted, Fig. S4)” value ([4]; concentration 3e-6 M) was -0.08238. For the same molecule, the “BRET2 response, Mean (plotted, Fig. S4)” value ([4]; concentration 1e-5 M) was -0.08622, the “BRET2 response, Mean (plotted, Fig. S4)” value ([4]; concentration 3e-5 M) was -0.08798 and the EC50 ([4]; wt GPR55, Gα13-Q373D) was 0.017 µM. For the same molecule, the Emax at 30 µM ([4]; wt GPR55, Gα13-Q373D, 30 µM ligand, same normalization, read-out: Efficacy ± SEM (%)) was 94 ± 7% and the EC50 [5] was 0.26 µM.
